Data taken from US5672715A, “Herbicidal substituted 3-aryl-pyrazoles” (Monsanto Company, priority 1995, dated 1997).

What was measured:
Format in all cases: in vivo
Green Foxtail [1] = assay: post-emergence herbicide test; settings: 0.25 lb/A; for inhibition at 280.212 g/ha: Setaria viridis, post-emergence, read-out: % plant inhibition
In short: (§1)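 Post-emergence activity is given as percent inhibition per species. Test compounds were atomizer-sprayed at 170.3 kPa, 1870 L/Ha carrier volume and roughly 0.4% v/v emulsifier onto greenhouse-raised plants aged two to three weeks, at the stated rates.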

Rape [2] = assay: post-emergence herbicide test; settings: 0.25 lb/A; for inhibition at 280.212 g/ha: post-emergence, read-out: % plant inhibition
In short: as §1

Soybean [3] = assay: post-emergence herbicide test; settings: 0.25 lb/A; for inhibition at 280.212 g/ha: Glycine max, post-emergence, read-out: % plant inhibition
In short: as §1

Giant Foxtail [4] = assay: post-emergence herbicide test; settings: 0.25 lb/A; for inhibition at 280.212 g/ha: Setaria faberi, post-emergence, read-out: % plant inhibition
In short: as §1

Seedling Johnsongrass [5] = assay: post-emergence herbicide test; settings: 0.25 lb/A; for inhibition at 280.212 g/ha: Sorghum halepense, post-emergence, read-out: % plant inhibition
In short: as §1

Downy Brome [6] = assay: post-emergence herbicide test; settings: 0.25 lb/A; for inhibition at 280.212 g/ha: Bromus tectorum, post-emergence, read-out: % plant inhibition
In short: as §1

Common Chickweed [7] = assay: post-emergence herbicide test; settings: 0.25 lb/A; for inhibition at 280.212 g/ha: post-emergence, read-out: % plant inhibition
In short: as §1

Barnyardgrass [8] = assay: post-emergence herbicide test; settings: 0.25 lb/A; for inhibition at 280.212 g/ha: Echinochloa crus-galli, post-emergence, read-out: % plant inhibition
In short: as §1

Morning Glory [9] = assay: post-emergence herbicide test; settings: 0.25 lb/A; for inhibition at 280.212 g/ha: Ipomoea, post-emergence, read-out: % plant inhibition
In short: as §1

Blackgrass [10] = assay: post-emergence herbicide test; settings: 0.25 lb/A; for inhibition at 280.212 g/ha: Alopecurus myosuroides, post-emergence, read-out: % plant inhibition
In short: as §1

Wheat [11] = assay: post-emergence herbicide test; settings: 0.25 lb/A; for inhibition at 280.212 g/ha: Triticum aestivum, post-emergence, read-out: % plant inhibition
In short: as §1

Corn [12] = assay: post-emergence herbicide test; settings: 0.25 lb/A; for inhibition at 280.212 g/ha: Zea mays, post-emergence, read-out: % plant inhibition
In short: as §1

Birdseye Speedwell [13] = assay: post-emergence herbicide test; settings: 0.25 lb/A; for inhibition at 280.212 g/ha: post-emergence, read-out: % plant inhibition
In short: as §1

Wild Oats [14] = assay: post-emergence herbicide test; settings: 0.25 lb/A; for inhibition at 280.212 g/ha: Avena fatua, post-emergence, read-out: % plant inhibition
In short: as §1

Velvetleaf [15] = assay: post-emergence herbicide test; settings: 0.25 lb/A; for inhibition at 280.212 g/ha: Abutilon theophrasti, post-emergence, read-out: % plant inhibition
In short: as §1

Cocklebur [16] = assay: post-emergence herbicide test; settings: 0.25 lb/A; for inhibition at 280.212 g/ha: Xanthium strumarium, post-emergence, read-out: % plant inhibition
In short: as §1

Bedstraw Catchweed [17] = assay: post-emergence herbicide test; settings: 0.25 lb/A; for inhibition at 280.212 g/ha: Galium aparine, post-emergence, read-out: % plant inhibition
In short: as §1

Green Foxtail [18] = assay: pre-emergence herbicide test; settings: 0.25 lb/A; for inhibition at 280.212 g/ha: Setaria viridis, pre-emergence, read-out: % plant inhibition
In short: (§2)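 Percent inhibition of emergence and growth was recorded roughly 14 days after seeding. Compound was incorporated into, or applied onto, a topsoil cover layer over seeds in pans kept in a greenhouse and watered from below.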

Rape [19] = assay: pre-emergence herbicide test; settings: 0.25 lb/A; for inhibition at 280.212 g/ha: pre-emergence, read-out: % plant inhibition
In short: as §2

Soybean [20] = assay: pre-emergence herbicide test; settings: 0.25 lb/A; for inhibition at 280.212 g/ha: Glycine max, pre-emergence, read-out: % plant inhibition
In short: as §2

Giant Foxtail [21] = assay: pre-emergence herbicide test; settings: 0.25 lb/A; for inhibition at 280.212 g/ha: Setaria faberi, pre-emergence, read-out: % plant inhibition
In short: as §2

Seedling Johnsongrass [22] = assay: pre-emergence herbicide test; settings: 0.25 lb/A; for inhibition at 280.212 g/ha: Sorghum halepense, pre-emergence, read-out: % plant inhibition
In short: as §2

Downy Brome [23] = assay: pre-emergence herbicide test; settings: 0.25 lb/A; for inhibition at 280.212 g/ha: Bromus tectorum, pre-emergence, read-out: % plant inhibition
In short: as §2

Common Chickweed [24] = assay: pre-emergence herbicide test; settings: 0.25 lb/A; for inhibition at 280.212 g/ha: pre-emergence, read-out: % plant inhibition
In short: as §2

Barnyardgrass [25] = assay: pre-emergence herbicide test; settings: 0.25 lb/A; for inhibition at 280.212 g/ha: Echinochloa crus-galli, pre-emergence, read-out: % plant inhibition
In short: as §2

Morning Glory [26] = assay: pre-emergence herbicide test; settings: 0.25 lb/A; for inhibition at 280.212 g/ha: Ipomoea, pre-emergence, read-out: % plant inhibition
In short: as §2

Blackgrass [27] = assay: pre-emergence herbicide test; settings: 0.25 lb/A; for inhibition at 280.212 g/ha: Alopecurus myosuroides, pre-emergence, read-out: % plant inhibition
In short: as §2

Wheat [28] = assay: pre-emergence herbicide test; settings: 0.25 lb/A; for inhibition at 280.212 g/ha: Triticum aestivum, pre-emergence, read-out: % plant inhibition
In short: as §2

Corn [29] = assay: pre-emergence herbicide test; settings: 0.25 lb/A; for inhibition at 280.212 g/ha: Zea mays, pre-emergence, read-out: % plant inhibition
In short: as §2

Birdseye Speedwell [30] = assay: pre-emergence herbicide test; settings: 0.25 lb/A; for inhibition at 280.212 g/ha: pre-emergence, read-out: % plant inhibition
In short: as §2

Wild Oats [31] = assay: pre-emergence herbicide test; settings: 0.25 lb/A; for inhibition at 280.212 g/ha: Avena fatua, pre-emergence, read-out: % plant inhibition
In short: as §2

Velvetleaf [32] = assay: pre-emergence herbicide test; settings: 0.25 lb/A; for inhibition at 280.212 g/ha: Abutilon theophrasti, pre-emergence, read-out: % plant inhibition
In short: as §2

Cocklebur [33] = assay: pre-emergence herbicide test; settings: 0.25 lb/A; for inhibition at 280.212 g/ha: Xanthium strumarium, pre-emergence, read-out: % plant inhibition
In short: as §2

Bedstraw Catchweed [34] = assay: pre-emergence herbicide test; settings: 0.25 lb/A; for inhibition at 280.212 g/ha: Galium aparine, pre-emergence, read-out: % plant inhibition
In short: as §2

## Cc1c(-c2cc(C(=O)OCCC(C)C)c(Cl)cc2F)nn(C)c1C(F)(F)F [Compound 55]
Green Foxtail [1]
  % plant inhibition: 65%
Rape [2]
  % plant inhibition: 15%
Soybean [3]
  % plant inhibition: 20%
Giant Foxtail [4]
  % plant inhibition: 35%
Seedling Johnsongrass [5]
  % plant inhibition: 70%
Downy Brome [6]
  % plant inhibition: 20%
Common Chickweed [7]
  % plant inhibition: 70%
Barnyardgrass [8]
  % plant inhibition: 45%
Morning Glory [9]
  % plant inhibition: 85%
Blackgrass [10]
  % plant inhibition: 20%
Wheat [11]
  % plant inhibition: 10%
Corn [12]
  % plant inhibition: 20%
Birdseye Speedwell [13]
  % plant inhibition: 95%
Wild Oats [14]
  % plant inhibition: 30%
Velvetleaf [15]
  % plant inhibition: 99%
Cocklebur [16]
  % plant inhibition: 90%
Bedstraw Catchweed [17]
  % plant inhibition: 75%
Green Foxtail [18]
  % plant inhibition: 100%
Rape [19]
  % plant inhibition: 5%
Soybean [20]
  % plant inhibition: 0%
Giant Foxtail [21]
  % plant inhibition: 100%
Seedling Johnsongrass [22]
  % plant inhibition: 95%
Downy Brome [23]
  % plant inhibition: 55%
Common Chickweed [24]
  % plant inhibition: 75%
Barnyardgrass [25]
  % plant inhibition: 30%
Morning Glory [26]
  % plant inhibition: 10%
Blackgrass [27]
  % plant inhibition: 60%
Wheat [28]
  % plant inhibition: 0%
Corn [29]
  % plant inhibition: 0%
Birdseye Speedwell [30]
  % plant inhibition: 100%
Wild Oats [31]
  % plant inhibition: 35%
Velvetleaf [32]
  % plant inhibition: 85%
Cocklebur [33]
  % plant inhibition: 30%
Bedstraw Catchweed [34]
  % plant inhibition: 85%

## COCCOC(=O)c1cc(-c2nn(C)c(C(F)(F)F)c2C)c(F)cc1Cl [Compound 56]
Green Foxtail [1]
  inhibition at 280.212 g/ha: 98%
Rape [2]
  inhibition at 280.212 g/ha: 98%
Soybean [3]
  inhibition at 280.212 g/ha: 90%
Giant Foxtail [4]
  inhibition at 280.212 g/ha: 100%
Seedling Johnsongrass [5]
  inhibition at 280.212 g/ha: 95%
Downy Brome [6]
  inhibition at 280.212 g/ha: 85%
Common Chickweed [7]
  inhibition at 280.212 g/ha: 90%
Barnyardgrass [8]
  inhibition at 280.212 g/ha: 50%
Morning Glory [9]
  inhibition at 280.212 g/ha: 80%
Blackgrass [10]
  inhibition at 280.212 g/ha: 60%
Wheat [11]
  inhibition at 280.212 g/ha: 16%
Corn [12]
  inhibition at 280.212 g/ha: 35%
Birdseye Speedwell [13]
  inhibition at 280.212 g/ha: 100%
Wild Oats [14]
  inhibition at 280.212 g/ha: 80%
Velvetleaf [15]
  inhibition at 280.212 g/ha: 100%
Cocklebur [16]
  inhibition at 280.212 g/ha: 99%
Bedstraw Catchweed [17]
  inhibition at 280.212 g/ha: 98%
Green Foxtail [18]
  inhibition at 280.212 g/ha: 100%
Rape [19]
  inhibition at 280.212 g/ha: 5%
Soybean [20]
  inhibition at 280.212 g/ha: 0%
Giant Foxtail [21]
  inhibition at 280.212 g/ha: 90%
Seedling Johnsongrass [22]
  inhibition at 280.212 g/ha: 50%
Downy Brome [23]
  inhibition at 280.212 g/ha: 100%
Common Chickweed [24]
  inhibition at 280.212 g/ha: 95%
Barnyardgrass [25]
  inhibition at 280.212 g/ha: 100%
Morning Glory [26]
  inhibition at 280.212 g/ha: 80%
Blackgrass [27]
  inhibition at 280.212 g/ha: 75%
Wheat [28]
  inhibition at 280.212 g/ha: 5%
Corn [29]
  inhibition at 280.212 g/ha: 0%
Birdseye Speedwell [30]
  inhibition at 280.212 g/ha: 100%
Wild Oats [31]
  inhibition at 280.212 g/ha: 55%
Velvetleaf [32]
  inhibition at 280.212 g/ha: 100%
Cocklebur [33]
  inhibition at 280.212 g/ha: 20%
Bedstraw Catchweed [34]
  inhibition at 280.212 g/ha: 90%

## Cc1c(-c2cc(C(=O)OCc3ccco3)c(Cl)cc2F)nn(C)c1C(F)(F)F [Compound 57]
Green Foxtail [1]
  inhibition at 280.212 g/ha: 40%
Rape [2]
  inhibition at 280.212 g/ha: 15%
Soybean [3]
  inhibition at 280.212 g/ha: 17%
Giant Foxtail [4]
  inhibition at 280.212 g/ha: 15%
Seedling Johnsongrass [5]
  inhibition at 280.212 g/ha: 35%
Downy Brome [6]
  inhibition at 280.212 g/ha: 15%
Common Chickweed [7]
  inhibition at 280.212 g/ha: 55%
Barnyardgrass [8]
  inhibition at 280.212 g/ha: 35%
Morning Glory [9]
  inhibition at 280.212 g/ha: 50%
Blackgrass [10]
  inhibition at 280.212 g/ha: 15%
Wheat [11]
  inhibition at 280.212 g/ha: 8%
Corn [12]
  inhibition at 280.212 g/ha: 3%
Birdseye Speedwell [13]
  inhibition at 280.212 g/ha: 100%
Wild Oats [14]
  inhibition at 280.212 g/ha: 25%
Velvetleaf [15]
  inhibition at 280.212 g/ha: 100%
Cocklebur [16]
  inhibition at 280.212 g/ha: 85%
Bedstraw Catchweed [17]
  inhibition at 280.212 g/ha: 40%
Green Foxtail [18]
  inhibition at 280.212 g/ha: 85%
Rape [19]
  inhibition at 280.212 g/ha: 0%
Soybean [20]
  inhibition at 280.212 g/ha: 0%
Giant Foxtail [21]
  inhibition at 280.212 g/ha: 10%
Seedling Johnsongrass [22]
  inhibition at 280.212 g/ha: 15%
Downy Brome [23]
  inhibition at 280.212 g/ha: 20%
Common Chickweed [24]
  inhibition at 280.212 g/ha: 20%
Barnyardgrass [25]
  inhibition at 280.212 g/ha: 50%
Morning Glory [26]
  inhibition at 280.212 g/ha: 90%
Blackgrass [27]
  inhibition at 280.212 g/ha: 15%
Wheat [28]
  inhibition at 280.212 g/ha: 0%
Corn [29]
  inhibition at 280.212 g/ha: 0%
Birdseye Speedwell [30]
  inhibition at 280.212 g/ha: 60%
Wild Oats [31]
  inhibition at 280.212 g/ha: 5%
Velvetleaf [32]
  inhibition at 280.212 g/ha: 90%
Cocklebur [33]
  inhibition at 280.212 g/ha: 10%
Bedstraw Catchweed [34]
  inhibition at 280.212 g/ha: 80%
